Source: patent publication US5783586A, “Heteroarylmethoxyphenylthioalkyl carboxylates as inhibitors of leukotriene biosynthesis” (Abbott Laboratories, priority 1996, dated 1998)

What was measured:
leukotriene biosynthesis = test: Ionophore A23187-Induced Rat Pleural Inflammation Model (leukotriene biosynthesis inhibition in vivo); settings: 1 h, male rats, dosed in 0.2% methocel one hour prior to intrapleural A23187, eicosanoids in pleural lavage
Description: Lipoxygenase Inhibition Determination in vivo
Inhibition of leukotriene biosynthesis in vivo was evaluated using the lonophore A32187-Induced Rat Plueral Inflammation Model. Pleural inflammation was induced in male rats following the method of Rao, et al (Rao, T. S., Currie, J. L., Shaffer, A. F., Isakson, P. C., (1993) Evaluation of 5-lipoxygenase Inhibitors, Zileuton, A-78773 and ICI D-2138 in an Ionophore (A-23187) Induced Pleural Inflammation Model in the Rat, Life Sciences, 53: 147 (1993)). Rats were dosed with experimental compounds in 0.2% methocel one hour prior to the intrapleural injection of the calcium ionophore, A23187. The rats where lightly anesthetized with Pentrane (Abbott Laboratories) and injected intrapleurally with 0.5 ml of 2% ethanol in injectable saline (Abbott Laboratories) containing 20 μg of A23187 (Cal BioChem-Novabiochem). Thirty minutes later the animals were euthanised and the pleural cavities lavaged with ice cold saline (Abbott Laboratories). The lavage fluid was then added to ice cold methanol (final methanol concentration 30%) to lyse cells and precipitate protein. Eicosanoids were determined by enzyme immunoassay by standard methods.

[1] = tested on: leukotriene biosynthesis (LTB4) in human polymorphornuclear leukocytes (PMNL); test: calcium ionophore-induced LTB4 in human PMNL (leukotriene biosynthesis inhibition in vitro); assay type: cell-based; settings: calcium ionophore 8.3 μM, 15 min preincubation, LTB4 measured
Description: Lipoxygenase Inhibition Determination in vitro
Inhibition of leukotriene biosynthesis was evaluated in vitro using an assay involving calcium ionophore-induced LTB4 expressed in human polymorphornuclear leukocytes (PMNL). Human PMNL isolated from heparinized (20 USP units/mL) venous blood (25 mL) obtained from healthy volunteers was layered over an equal volume of Ficoll-Hypaque Mono-Poly Resolving Medium (ICN Flow, Costa Mesa, Calif.) and centrifugated at 400 × g for 40 minutes at 20° C. The PMNL was collected, erythrocytes lysed and washed 2× and suspended at 1.0×10^7 cells/ml in Earle's balanced salt solution with 17 mM Earle's HEPES. Aliquots of the cell suspension were preincubated with test compounds dissolved in DMSO (final concentration <2%) for 15 minutes and stimulated with calcium ionophore (final concentration 8.3 μM) for 10 minutes at 37° C. Incubations were stopped with the addition of two volumes of ice-cold methanol followed by centrifuging the cell suspensions at 4° C. for 10 minutes at 450 × g. The amount of LTB4 in the methanol extract was analyzed by enzyme-linked immunoassay or by HPLC analysis.

- IC50 [1]: 230 nM
Structure (SMILES): CC(SCC(=O)O)(c1ccc(OCc2ccc3ccccc3n2)cc1)c1ccc(OCc2ccc3ccccc3n2)cc1 [Example 1, 1,1-bis(4-(2-quinolylmethoxy)phenyl)eth-1-ylthioacetic acid]
- ED50 (leukotriene biosynthesis): 1.1 mg/kg
